Earlier results on 1 compound are cited in US10548859B2, “Methods for storing Cysteamine formulations and related methods of treatment” (Horizon Orphan LLC, priority 2015, dated 2020).

For this data set the following is noted: children with cystinosis.

For the compound `COc1ccc2c(c1)c(CC(=O)O)c(C)n2C(=O)c1ccc(Cl)cc1` [indomethacin], the “reduction of urine volume and liquid consumption” value is given as “about 30%”.
